Laboratory results published in patent US20180003613A1, “Phenotypic High-Content Assay to Evaluate Drugs” (Texas Tech University System, priority 2015, published 2018).
“Also recorded” adds a separate entry of the source.

Tests used:
[1] = tested on: AGT-170 cells; test: Phenotypic cell based AGT/peroxisome co-localization high content assay (Pearson's colocalization coefficient), AGT-170 cells; design: species or system Chinese hamster; conditions: for % rescue (normalized AGT co-localization): pilot screen, 1536 well, FIG. 3, normalized to AGT-mi (high) and AGT-170 (low) DMSO controls, 4 μM final stated for pilot screen
Protocol: After an overnight incubation time at 37 C, 95% relative humidity and 5% CO2, cells were treated with DMSO or glycerol at different concentrations. After 2 days, cells were fixed with 4% paraformaldehyde, washed 3 times with PBS and permeabilized for 10-30 min with 0.1% Triton X-100 in PBS (PBS-TX). Cells were then stained with a guinea pig anti-AGT “A1” antibody (1:10,000) and a rabbit anti-PMP70 antibody (Ab3421, 1:500) in PBS-TX containing 0.5% goat serum. After 3 PBS washes, anti-rabbit AF488 and anti-guinea pig AF546 secondary antibodies (both at 1:10,000), as well as Hoeschst at 10 ug/mL were added to each well. Images were acquired with a 20× objective on the CellInsight (Cellomics). Puncta labeled with the anti-PMP70 antibody (labeling peroxisomes) and the anti-AGT antibody are detected in the green and red channels, respectively. Colocalization of the two populations of puncta was determined via calculation of the Pearson Colocalization Coefficient using Cellomics' “Colocalization” BioApplication. Here, miAGT cells are non-mutant AGT expressing CHO cells while the mutant AGT cells are references as 170s. The concentration of glycerol used in […] is listed in both the bar graph and the scatterplot. 4 replicates per condition were done and Z′ and S:B are calculated from the untreated AGT 170 cells versus the miAGT cells.
384-well plate assay protocol. Briefly, AGT-170 cells (and AGTmi cells that serve as a positive control) were seeded in black, square, IQ™ 100 μ384-well plates (Aurora, Brooks, Chelmsford, Mass.) at 500 cells/wells using a Flying Reagent Dispenser (FRD, Beckman Coulter, Brea, Calif.). After an overnight incubation at 37° C., 95% relative humidity (RH) and 5% CO2, cells were treated with 100 nL test compounds or DMSO for the positive and negative wells with a pintool transfer unit (GNF). Plates were then placed in an incubator for three days at 37° C., 95% RH and 5% CO2, immunostained and acquired on a high content imager as described below.
Immunostaining. Following treatment and incubation as described above, cells were fixed by the addition of 2× fixation solution (8% paraformaldehyde-PFA) using a FRD. Plates were then washed 3 times with PBS on the Squirt microplate washer using a 12° nozzle tilt and 15 PSI pressure according to the user's manual for washing normal binding cells in 384-well plate format (Brook, Chelmsford, Mass.). Cells were then permeabilized by dispensing a solution of 0.1% Triton X-100 in PBS (PBS-TX) and incubated for 10-30 minutes. Next, cells were stained with a guinea pig anti-AGT “A1” antibody (Danpure's Lab, London, UK; 1:10,000) and a rabbit anti-PMP70 antibody (Abcam, Cambridge, Mass.; 1:500) in PBS-TX containing 0.5% goat serum. After 3 PBS washes, anti-rabbit AF488 and anti-guinea pig AF546 secondary antibodies (Molecular Probes, Eugene, Oreg.; both at 1:10,000), as well as Hoechst at 10 μg/mL were added to each well. Thirty minutes later, plates were washed 3 times, filled with 50 μL/well of PBS and sealed with black tape.
Image acquisition and analysis. Plates were read and images acquired with the CellInsight high content reader (Thermo Fisher Scientific, Pittsburgh, Pa.) using a 20× objective. A detailed and illustrated description of the image acquisition and analysis is presented FIGS. 1A to 1H. A maximum of 9 fields of view per well were acquired, yielding an average of ≈700 cells detected. The nuclear stain channel (Hoechst, 386 nm, 9.8 milliseconds exposure time) was used to focus on the cell layer. Puncta labeled with the anti-PMP70 antibody (labeling peroxisomes) and the anti-AGT antibody were acquired in the green (485 nm, 40 milliseconds exposure) and red (549 nm, 15 milliseconds exposure) channels, respectively. Nuclei were detected using the fixed threshold method with an intensity threshold of 300. Next, a cytoplasmic region of interest was created around each nucleus by creating a ring with a distance of 1 pixel from the nucleus and a width of 8 pixels. […]

[2] = tested on: CHO cells; test: Cytotoxicity / cell viability seen in the high content assay (HCS images); assay type: cell-based, Chinese hamster
Protocol: In order to assess the ability to induce and detect an increase in the Pearson's colocalization coefficient, both AGTmi and AGT-170 cells were treated with glycerol, which is a viscous polyol compound known to enhance the stability of proteins in solution. This co-solvent shifts the native protein to more compact states and inhibits protein-protein aggregation while proteins are being refolded during biological synthesis. […] Concentrations of glycerol higher than 5% affected cell viability and prevented accurate determination of the Pearson's colocalization coefficient; for these reasons, they were avoided. To probe the robustness of the assay, the glycerol titration assay was repeated on two separate plates. […] The Z′-factor, a statistical measurement indicative of HTS-readiness, was calculated between the AGT-170 cells in absence and presence of 5% glycerol and found to be 0.58, and at 0.81 between untreated AGT-170 and AGTmi cells.
Fresh powders, solvated in DMSO, were obtained and reformatted as ten point three fold serial dilutions and proceeded to test them in the same assay as described above. […] All data was imported into the Scripps database, assessed for quality control in terms of Z′, S:B and CV (i.e., quality controlled), and curves were fitted using a 4-parameter algorithm without constraining the top or bottom asymptote. […]

[3] = tested on: AGTmi cells; test: AGT/peroxisome co-localization high content assay, AGTmi cells, glycerol treatment; assay type: cell-based, Chinese hamster
Protocol: After an overnight incubation time at 37 C, 95% relative humidity and 5% CO2, cells were treated with DMSO or glycerol at different concentrations. After 2 days, cells were fixed with 4% paraformaldehyde, washed 3 times with PBS and permeabilized for 10-30 min with 0.1% Triton X-100 in PBS (PBS-TX). Cells were then stained with a guinea pig anti-AGT “A1” antibody (1:10,000) and a rabbit anti-PMP70 antibody (Ab3421, 1:500) in PBS-TX containing 0.5% goat serum. After 3 PBS washes, anti-rabbit AF488 and anti-guinea pig AF546 secondary antibodies (both at 1:10,000), as well as Hoeschst at 10 ug/mL were added to each well. Images were acquired with a 20× objective on the CellInsight (Cellomics). Puncta labeled with the anti-PMP70 antibody (labeling peroxisomes) and the anti-AGT antibody are detected in the green and red channels, respectively. Colocalization of the two populations of puncta was determined via calculation of the Pearson Colocalization Coefficient using Cellomics' “Colocalization” BioApplication. […] 4 replicates per condition were done and Z′ and S:B are calculated from the untreated AGT 170 cells versus the miAGT cells.
Image acquisition and analysis. Plates were read and images acquired with the CellInsight high content reader (Thermo Fisher Scientific, Pittsburgh, Pa.) using a 20× objective. […]

[4] = fresh powders, ten point three fold serial dilutions, 25 uM highest concentration, FIG. 5

Compound: CC[C@@]1([C@@H]2O[C@@H]([C@H]3O[C@@](O)(CO)[C@H](C)C[C@@H]3C)C[C@@H]2C)CC[C@H]([C@]2(C)CC[C@]3(C[C@H](O)[C@@H](C)[C@@H]([C@@H](C)[C@@H](OC)[C@H](C)C(=O)O)O3)O2)O1 [Monensin]
- EC50 potency from concentration response curves [1, 4]: low micromolar potency
- % rescue (normalized AGT co-localization) [1]: 84%

Compound: 26-Deoxymonensin B
- % rescue (normalized AGT co-localization) [1]: 73%

Compound: OCC(O)CO [glycerol]
- Concentration that affected cell viability ([2]; glycerol titration, prevented accurate determination of the Pearson's coefficient): higher than 5%
- fold increase of Pearson's values [3]: ~1.10 fold
- Effect on AGT mutant (colocalization with peroxisomes) ([1]; 1536-well plates, 2 days treatment, FIG. 1): stabilizing the AGT mutant
- fold increase of Pearson's colocalization coefficient ([1]; AGT-170 cells, glycerol treatment): 1.91 fold
- Pearson's colocalization coefficient after glycerol treatment ([1]; AGT-170 cells, increasing concentrations of glycerol, n=4, untreated 0.41±0.01): 0.80±0.04

Compound: CC(NCCC(c1ccccc1)c1ccccc1)c1ccccc1 (stereo not shown) [Fendiline]
- Toxicity by eye when observing HCS images ([2]; concentration response test, FIG. 5 and FIG. 6): appears toxic at higher concentrations; also recorded: appeared toxic at 10 uM
- Activity in concentration response curves [1, 4]: inactive; also recorded: did not show significant activity
